Results taken from US9309276B2, “Synthetic lipid A derivative” (University of Georgia Research Foundation, Inc., priority 2007, dated 2016).

Molecular target: T1, murine TLR4, MD2, and CD14 (Mus musculus, UniProt Q9JHF9+Q9QUK6)
T1 construct: host or cells: HEK 293T
T1 sequence (Q9QUK6 26-835): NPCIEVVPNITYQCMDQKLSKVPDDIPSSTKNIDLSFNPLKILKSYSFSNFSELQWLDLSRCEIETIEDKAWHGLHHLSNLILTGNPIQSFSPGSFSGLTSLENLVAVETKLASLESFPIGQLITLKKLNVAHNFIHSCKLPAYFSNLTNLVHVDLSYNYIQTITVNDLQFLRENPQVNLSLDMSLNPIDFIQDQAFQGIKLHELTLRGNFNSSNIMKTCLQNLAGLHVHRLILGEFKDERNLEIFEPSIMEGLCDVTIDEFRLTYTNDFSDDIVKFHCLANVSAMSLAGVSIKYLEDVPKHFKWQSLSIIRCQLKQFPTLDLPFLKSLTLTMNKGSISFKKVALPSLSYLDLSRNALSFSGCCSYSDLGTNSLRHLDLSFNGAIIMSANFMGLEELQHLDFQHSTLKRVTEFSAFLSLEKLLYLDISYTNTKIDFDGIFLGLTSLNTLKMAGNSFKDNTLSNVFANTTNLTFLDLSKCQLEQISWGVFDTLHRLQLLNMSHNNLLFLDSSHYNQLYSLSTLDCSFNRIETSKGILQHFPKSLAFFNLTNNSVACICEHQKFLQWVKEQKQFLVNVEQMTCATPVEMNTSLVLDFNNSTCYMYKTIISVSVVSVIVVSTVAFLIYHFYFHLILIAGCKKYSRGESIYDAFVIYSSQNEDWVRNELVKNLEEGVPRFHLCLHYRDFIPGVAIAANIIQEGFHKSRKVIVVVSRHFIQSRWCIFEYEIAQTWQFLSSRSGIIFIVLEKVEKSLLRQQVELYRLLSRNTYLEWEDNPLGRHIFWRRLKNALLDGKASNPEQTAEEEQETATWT
T1 sequence (Q9JHF9 19-160): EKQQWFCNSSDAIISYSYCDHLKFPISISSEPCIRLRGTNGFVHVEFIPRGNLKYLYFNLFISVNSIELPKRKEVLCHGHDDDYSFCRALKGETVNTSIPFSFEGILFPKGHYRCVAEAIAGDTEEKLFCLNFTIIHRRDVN
Experiment: NF-κB activation (luciferase reporter) in HEK 293T cells stably transfected with murine TLR4/MD2/CD14
Format: cell-based
Conditions: for EC50: 4 h exposure, dual-luciferase, best-fit value
Description: Induction of NF-κB activation was determined in triplicate cultures of HEK 293T cells stably transfected with murine TLR4, MD2, and CD14 and transiently transfected with pELAM-Luc, pRL-TK, and pcDNA3 plasmids. Forty-four hours post-transfection, cells were treated with E. coli LPS or lipid A derivatives 1-5 at the indicated concentrations or were left untreated (control). Forty-eight hours post-transfection, NF-κB activation was determined by firefly luciferase activity relative to Renilla luciferase activity. In the transfection experiment shown, human TNF-α (10 ng/mL) induced 12.1±0.3-fold activation of NF-κB.
To obtain further support that the EC50 values of secreted TNF-α protein are not affected by transcriptional, translational, or protein processing processes, dose response curves for the activation of the transcription factor NF-κB were determined for each compound and the results compared with similar data for secretion of TNF-α protein. Thus, compounds 1-5, and E. coli LPS were exposed at a range of concentrations to HEK 293T cells stably transfected with […] TLR4/MD2/CD14 and transiently transfected with a plasmid containing the reporter gene pELAM-Luc (NF-κB dependent firefly luciferase reporter vector) and a plasmid containing the control gene pRL-TK (Renilla luciferase control reporter vector). As a negative control, wild type HEK 293T cells transiently transfected with plasmids containing the reporter gene pELAM-Luc and control gene pRL-TK were used. After an incubation time of 4 h, the activity was measured using a commercial dual-luciferase assay.
The day before transfection, HEK 293T wild type cells and HEK 293T cells stably transfected with murine TLR4/MD2/CD14 were plated in 96-well tissue culture plates (16,000 cells/well). The next day, cells were transiently transfected using PolyFect Transfection Reagent (Qiagen) with expression plasmids pELAM-Luc (NF-κB-dependent firefly luciferase reporter plasmid, 50 ng/well) (Chow et al., J. Biol. Chem. 1999, 274, 10689-10692) and pRL-TK (Renilla luciferase control reporter vector, 1 ng/well; Promega) as an internal control to normalize experimental variations. The empty vector pcDNA3 (Invitrogen) was used as a control and to normalize the DNA concentration for all of the transfection reactions (total DNA 70 ng/well). […] The luciferase activity was measured using the Dual-Luciferase Reporter Assay System (Promega) according to the manufacturer's instructions and the Fluoroskan Accent FL combination luminometer/fluorometer (Thermo Electron Corporation). […]
Concentration-response data were analyzed using nonlinear least-squares curve fitting in Prism (GraphPad Software, Inc.). […]

Structure (SMILES): CCCCCCCCCCCCCCCC(=O)O[C@H](CCCCCCCCCCCC(C)C)CC(=O)N[C@H]1[C@H](OC[C@H]2O[C@H](OP(=O)(O)O)[C@H](NC(=O)C[C@H](O)CCCCCCCCCCCC(C)C)[C@@H](O)[C@@H]2O)O[C@H](CO)[C@@H](O)[C@@H]1ONC(=O)C[C@H](O)CCCCCCCCCC(C)C [Compound 104, 6-O-{2-Deoxy-2-[(R)-3-hexadecanoyloxy-15-methyl-hexadecanoylamino]-3-O—[(R)-3-hydroxy-13-methyl-tetradecanoylamino]-β-D-glucopyranosyl}-2-deoxy-2-[(R)-3-hydroxy-15-methyl-hexadecanoylamino]-α-D-glucopyranose 1-phosphate]
- NF-κB activation, mouse TLR4/MD2/CD14 (Example III, 104 at 0.1, 1 and 10 μg mL−1, E. coli LPS 10 ng mL−1, 4 h): at high concentrations, compound 104 could induce NF-κB activation

Structure (SMILES): CCCCCCCCCCCCCC(=O)OC(CCCCCCCCCCC)CC(=O)OC1C(NC(=O)CC(CCCCCCCCCCC)OC(=O)CCCCCCCCCCC)C(OCC2OC(OP(=O)(O)O)C(NC(=O)CC(O)CCCCCCCCCCC)C(OC(=O)CC(O)CCCCCCCCCCC)C2O)OC(CO)C1OP(=O)(O)O [Lipid A 1, 6-O-{2-Deoxy-2-[(R)-3-dodecanoyloxy-tetradecanoylamino]-3-O—[(R)-3-tetradecanoyloxy-tetradecanoyl]-β-D-glucopyranosyl}-2-deoxy-3-O—[(R)-3-hydroxy-tetradecanoyl]-2-[(R)-3-hydroxy-tetradecanoylamino]-α-D-glucopyranose 1,4′-bisphosphate]
- EC50: 38 nM

Structure (SMILES): CCCCCCCCCCCC(=O)OC(CCCCCCCCCCC)CC(=O)NC1C(OCC2OC(OP(=O)(O)O)C(NC(=O)CC(O)CCCCCCCCCCC)C(OC(=O)CC(O)CCCCCCCCC)C2O)OC(CO)C(OP(=O)(O)O)C1OC(=O)CC(CCCCCCCCC)OC(=O)CCCCCCCCCCC [Lipid A 2, 6-O-{2-Deoxy-3-O—[(R)-3-dodecanoyloxy-dodecanoyl]-2-[(R)-3-dodecanoyloxy-tetradecanoylamino]-β-D-glucopyranosyl}-2-deoxy-3-O—[(R)-3-hydroxy-dodecanoyl]-2-[(R)-3-hydroxy-tetredecanoylamino]-α-D-glucopyranose 1,4′-bisphosphate]
- EC50: 14 nM

Structure (SMILES): CCCCCCCCCCCCCCCC(=O)OC(CCCCCCCCCCC)CC(=O)NC1C(OP(=O)(O)O)OC(COC2OC(CO)C(OP(=O)(O)O)C(OC(=O)CC(CCCCCCCCC)OC(=O)CCCCCCCCCCC)C2NC(=O)CC(CCCCCCCCCCC)OC(=O)CCCCCCCCCCC)C(O)C1OC(=O)CC(O)CCCCCCCCC [Lipid A 4, 6-O-{2-Deoxy-3-O—[(R)-3-dodecanoyloxy-dodecanoyl]-2-[(R)-3-dodecanoyloxy-tetradecanoylamino]-β-D-glucopyranosyl}-2-deoxy-2-[(R)-3-hexadecanoyloxy-tetredecanoylamino]-3-O—[(R)-3-hydroxy-dodecanoyl]-α-D-glucopyranose 1,4′-bisphosphate]
- EC50: 53 nM
